SMILES strings stand for the structures. Converted amounts (≈) assume the structure as drawn.

As usually defined, the solubility (kinetic) is solubility judged after dilution from a stock solution rather than from solid.

For this data set the following is noted: buffer; pH 7.4; 200.0 µM.
In the case of `COc1ccc(CNC(=O)c2cc(=O)c3c(C)cc(C)cc3o2)cc1`, the kinetic solubility is below 0.7 µg/mL. Then `CN1C(C(=O)Nc2ccccn2)=C(O)c2ccccc2S1(=O)=O`, with above 49.7 µg/mL.

The compound `CC(=O)c1sc(NC(=O)c2ccc(Br)o2)nc1C` showed a kinetic solubility of 12.8 µg/mL (≈ 38.9 µM).

Consider `O=C(c1ccc(S(=O)(=O)N2CCCC2)cc1)N1CCCCCC1`, for which the solubility (kinetic) is above 50.5 µg/mL. Then `O=c1cc(CSc2ccccc2)[nH]c2ccccc12`, with 39.7 µg/mL (≈ 148 µM); and `CCOC(=O)N1CCC(NS(=O)(=O)c2ccccc2)CC1`, with above 46.9 µg/mL.

The compound `COc1ccc(N(C)S(=O)(=O)c2cccc(C(=O)OCC(=O)c3c(N)n(C)c(=O)n(C)c3=O)c2)cc1` had a kinetic solubility of 3.2 µg/mL (≈ 6.2 µM). The result for `O=C(c1cc2cc(Cl)ccc2[nH]1)N1CCc2ccccc2C1` reads 0.9 µg/mL (≈ 2.9 µM); that for `Cc1cccnc1NC(=O)CNC(=O)c1ccccc1`, above 40.4 µg/mL. `Br.Cc1ccnc(Nc2nc(-c3ccccc3)cs2)c1`: the solubility (kinetic) stood at 0.4 µg/mL. The result for `COc1ccccc1C(=O)NCCOc1ccc(C)c(C)c1` reads 43 µg/mL (≈ 144 µM); that for `Cc1ccc(Nc2nc(N)c([N+](=O)[O-])c(NCc3ccccc3)n2)cc1`, 0.3 µg/mL (≈ 0.856 µM); that for `Cl.N=c1sccn1Cc1ccccc1F`, above 36.7 µg/mL. The result for `O=C(CN1C(=O)CCS(=O)(=O)c2ccccc21)NCCc1ccccc1` reads 55.3 µg/mL (≈ 148 µM); that for `N#CCCN(C(=O)COC(=O)CCC(=O)c1cccs1)c1ccccc1`, above 55.6 µg/mL; that for `CCOc1ccccc1NC(=O)c1ccccc1-c1ccccc1`, 8.5 µg/mL (≈ 26.8 µM). Compound `Fc1cccc(F)c1/C=N/N1CCOCC1` came in with a kinetic solubility above 33.9 µg/mL. Then `C=CCOC(=O)C1=C(C)NC(C)=C(C(=O)OCC=C)C1c1ccco1`, with 4.5 µg/mL (≈ 13.1 µM).

For `CN(C)NC(=S)NC1CC2CCC1C2` (stereo unspecified), the solubility (kinetic) is above 32 µg/mL. The result for `Cc1ccc(CC2CC(=O)N(c3nc(C)cc(C)n3)C2=O)cc1` (stereo unspecified) reads above 46.4 µg/mL; that for `COc1ccc(C(=O)NCc2ccc3c(c2)CCO3)cc1`, 32.5 µg/mL (≈ 115 µM); that for `Cc1ccc2cc(C#N)c(N3CCN(C(=O)c4ccccc4)CC3)nc2c1`, 4.1 µg/mL (≈ 11.5 µM).

`CN1C(=O)CN=C(c2ccc(Cl)cc2)c2cc(Cl)ccc21`: the kinetic solubility was above 47.9 µg/mL. Regarding `Cn1c(C(=O)N2CCC(C(N)=O)CC2)cc2cc(Cl)ccc21`, the kinetic solubility amounted to 1.2 µg/mL (≈ 3.75 µM). Then `Cc1c(Cl)cccc1NC(=O)C1C2C=CC(C2)C1C(=O)O` (stereo unspecified), with above 45.9 µg/mL. Turning to `COC(=O)c1cccc(NS(C)(=O)=O)c1`, the kinetic solubility is above 34.4 µg/mL. The result for `COc1ccc(NC(=O)COC(=O)CCC2CCCCC2)cc1` reads 19.4 µg/mL (≈ 60.7 µM); that for `CCOC(=O)Cc1cnc(N)s1`, 27.6 µg/mL (≈ 148 µM); that for `COC(=O)c1ccc(NC(=O)c2cccc(C)c2)cc1`, 5.4 µg/mL (≈ 20.1 µM). As to `Cc1nc2c3cc(Cl)ccc3n(CCN3CCOCC3)c2s1`, the kinetic solubility stood at 7.7 µg/mL (≈ 22.9 µM).

Regarding `COc1ccc(CCNc2c([N+](=O)[O-])ncn2C)cc1OC`, the kinetic solubility is 45.8 µg/mL (≈ 150 µM). Then `CCc1cccc(NC(=O)C2CCCN2C(=O)Nc2ccc(C)cc2)c1` (stereo unspecified), with 1.2 µg/mL (≈ 3.41 µM). Then `N#Cc1cc([N+](=O)[O-])ccc1NCCc1ccccn1`, with above 40.2 µg/mL; and `CC(=O)N1CCCSC1=Nc1ccccc1`, with above 35.1 µg/mL.

Consider `COc1ccc(C(C)=O)cc1CSC(=N)N.Cl`, for which the kinetic solubility was above 41.2 µg/mL. Then `Nc1ccc(C2(c3ccc(N)cc3)CCCCC2)cc1`, with 36 µg/mL (≈ 135 µM); and `Cc1noc(NC(=O)c2ccc(Cl)cc2)c1Cl`, with 28.2 µg/mL (≈ 104 µM).

Consider `COc1ccc(C)cc1C(=O)CCC(=O)NC1CCCCC1`, for which the kinetic solubility is 21.2 µg/mL (≈ 69.9 µM). `NC(=S)Nc1cc(Cl)cc(Cl)c1`: the kinetic solubility was 33 µg/mL (≈ 149 µM). In the case of `CCCCN=C1CC(C)(C)CC(=O)/C1=C(/O)CCC`, the solubility (kinetic) is above 39.8 µg/mL. The result for `Cc1cc(C(=O)NC(C)CCc2ccccc2)ccc1[N+](=O)[O-]` (stereo unspecified) reads 4 µg/mL (≈ 12.8 µM); that for `O=C(COC(=O)/C=C/c1ccccc1)NC(=O)NC1CCCCC1`, 8.8 µg/mL (≈ 26.6 µM); that for `COC(=O)c1nc2ccc(N3CCOCC3)cc2c(C)c1C(=O)OC`, above 51.7 µg/mL. `c1ccc(-c2cc(-c3ccccc3)on2)cc1` returned a solubility (kinetic) below 0.5 µg/mL. The result for `COc1cccc(/C=C2\NC(=O)NC2=O)c1O` reads 32.6 µg/mL (≈ 139 µM); that for `O=C(N/N=C/c1ccc([N+](=O)[O-])o1)C1CCCC1`, above 37.7 µg/mL. The result for `CC(C)NCc1nnc(-c2ccc(Cl)cc2)o1` reads above 37.8 µg/mL; that for `CC(NC(=O)c1cnc2ccccc2n1)c1ccccc1` (stereo unspecified), 33.7 µg/mL (≈ 122 µM); that for `CCN1C(=O)CC(c2cccnc2)=Nc2ccccc21`, above 39.8 µg/mL. The compound `O=C(NC1CCCCNC1=O)c1ccccc1` (stereo unspecified) returned a solubility (kinetic) above 34.8 µg/mL. The result for `COc1ccc(NC(=O)Nc2cnccn2)cc1` reads 8.1 µg/mL (≈ 33.2 µM).

The compound `O=C(Nc1ccc(S(=O)(=O)N2CCOCC2)cc1)c1ccccc1` showed a solubility (kinetic) above 52 µg/mL. Consider `COc1ccc(C(CC(=O)Nc2nccs2)C(C)C)cc1` (stereo unspecified), for which the kinetic solubility is 33.7 µg/mL (≈ 111 µM). Then `Cc1ccc(NC(=O)Cc2nc(COC(=O)c3c(F)cccc3Cl)cs2)cc1`, with 7.5 µg/mL (≈ 17.9 µM). The result for `O=C(c1c(Cl)cccc1Cl)N1CCN(c2ncccn2)CC1` reads above 50.6 µg/mL; that for `CCCC1Cc2c(sc(N)c2C#N)CO1` (stereo unspecified), above 33.3 µg/mL; that for `Cc1ccc(O)c(CO)n1`, above 20.9 µg/mL.

Take `CNc1cc(C)nc(N2CCOCC2)n1`: the solubility (kinetic) is above 31.2 µg/mL. Compound `COc1ccccc1-c1cc(C(=O)NC2CCCC2)no1` had a solubility (kinetic) of 6.1 µg/mL (≈ 21.3 µM). The result for `CCCCCCn1c(N2CCCC2)nc2c1c(=O)[nH]c(=O)n2C` reads above 47.9 µg/mL. For the compound `Nn1c(SCC(=O)NC2CCCc3ccccc32)nnc1C1CC1` (stereo unspecified), the kinetic solubility was above 51.5 µg/mL. The result for `COc1ccc(NC(=O)Cn2cc(C(C)=O)c3ccccc32)cc1` reads 0.5 µg/mL (≈ 1.55 µM); that for `CCCCCCC(=O)N(O)C1CC(=O)N(c2ccc(F)cc2)C1=O` (stereo unspecified), above 50.5 µg/mL; that for `CNC(=S)NC1CC2CCCC(C1)N2Cc1ccccc1OC` (stereo unspecified), above 50 µg/mL. The result for `Cc1ccc(C(=O)/C=C/c2cc(C#N)n(C)c2C)cc1` reads 1.2 µg/mL (≈ 4.54 µM); that for `CCOc1ccc(NC(=O)c2cc(=O)[nH]c3ccccc23)cc1`, 1.3 µg/mL (≈ 4.22 µM).

`Cc1ccc(NC(=O)CCN2C(=O)c3ccccc3C2=O)cc1`: the solubility (kinetic) was found to be 8.9 µg/mL (≈ 28.9 µM). Then `Cc1ccc(C2=Nc3ccccc3N=C(C(Cl)Cl)C2)cc1`, with 3.1 µg/mL (≈ 9.77 µM); and `COCCNC(=O)/C(C#N)=C/c1cc(Br)c(O)c(OC)c1`, with 45 µg/mL (≈ 127 µM); and `Cc1noc(C)c1COC(=O)c1csc2c1CCC(C)C2` (stereo unspecified), with 1.4 µg/mL (≈ 4.58 µM). The result for `O=C(CN1CCc2ccccc2C1)Nc1ccc(F)cc1` reads 39.2 µg/mL (≈ 138 µM); that for `O=C(O)c1cc([N+](=O)[O-])ccc1NCc1ccccc1Cl`, 45 µg/mL (≈ 147 µM); that for `CN1CCc2c(sc3c2C(=O)NC(/C=C\c2ccccc2)N3)C1` (stereo unspecified), 44.6 µg/mL (≈ 137 µM).

In turn, `Nc1nc(Cl)cc(Oc2ccc([N+](=O)[O-])cc2)n1` came in with a kinetic solubility of 1.5 µg/mL (≈ 5.63 µM). Then `c1ccc(-c2noc(-c3ccno3)n2)nc1`, with 25.4 µg/mL (≈ 119 µM); and `COc1nc(-c2ccccc2)nc(C)c1CC(=O)O`, with above 38.7 µg/mL; and `CC(Sc1ccccc1)C(=O)NCCc1ccccc1` (stereo unspecified), with above 42.8 µg/mL.

For the compound `O=C(CSc1ccc([N+](=O)[O-])cc1)Nc1cccc(S(=O)(=O)N2CCOCC2)c1`, the kinetic solubility amounted to 17.1 µg/mL (≈ 39.1 µM). In the case of `O=C(O)c1cc(C(=O)O)cc(N2C(=O)CSC2=S)c1`, the kinetic solubility was above 44.6 µg/mL. Then `Cc1nc(NC(=O)c2cncc(Br)c2)ccc1Br`, with 2.1 µg/mL (≈ 5.66 µM); and `COc1ccc(/C=C(\C#N)C(=O)ONC2=NCCCCC2)cc1`, with 42.8 µg/mL (≈ 137 µM); and `O=[N+]([O-])c1ccccc1CN1CCN(c2ncccn2)CC1`, with 34.8 µg/mL (≈ 116 µM). Then `C/C(=N/OC(=O)C1CC1)c1cc(-c2ccc(Cl)cc2)no1`, with 0.4 µg/mL (≈ 1.31 µM); and `CCOC(=O)C1=C(C)NC(C)=C(C(=O)OCC)C1c1ccc(C)o1`, with 1.8 µg/mL (≈ 5.4 µM); and `N#Cc1ccsc1NC(=O)COC(=O)CCS(=O)(=O)c1ccccc1`, with above 56.8 µg/mL.

On to `O=C(COC(=O)c1cccc(Br)c1)NCc1ccco1`, for which the kinetic solubility turned out to be 19 µg/mL (≈ 56.2 µM). Then `O=C1CN(C(=O)COC(=O)c2ccc(Cl)c(S(=O)(=O)N3CCCCC3)c2)c2ccccc2N1`, with 4.7 µg/mL (≈ 9.55 µM); and `Cc1onc(C(=O)NCCc2ccccc2)c1[N+](=O)[O-]`, with above 41.3 µg/mL. The result for `Cc1ccc(CN2CCSCC2)cc1` reads 7.4 µg/mL (≈ 35.7 µM). Regarding `O=S(=O)(Cc1ccccc1)Nc1ccc(F)cc1`, the kinetic solubility is above 39.8 µg/mL. The result for `NC(=O)c1ccc(CSc2nc3ccccc3s2)cc1` reads 1.4 µg/mL (≈ 4.66 µM). Then `O=C(CN1CCc2ccccc2C1)Nc1ccc(OC(F)(F)F)cc1`, with 0.9 µg/mL (≈ 2.57 µM). The compound `Cc1c(Cl)cccc1NC(=O)C1COc2ccccc2O1` (stereo unspecified) showed a solubility (kinetic) of 30.6 µg/mL (≈ 101 µM). The result for `CC(C)c1cccc(C(C)C)c1OCCCCCN1CCOCC1` reads 33.4 µg/mL (≈ 100 µM); that for `CCC(Oc1ccc(C)cc1)C(=O)Nc1ccc2c(c1)n(C)c(=O)n2C` (stereo unspecified), above 53 µg/mL. `CCNC(=S)N1CCC(NC(=O)c2ccco2)CC1` yielded a kinetic solubility above 42.2 µg/mL.

Consider `Cc1cc(C(=O)OCC(=O)Nc2ccccc2C(F)(F)F)on1`, for which the solubility (kinetic) was above 49.2 µg/mL.

As to `COc1cc(SC)ccc1C(=O)NCCN1CCOCC1`, the kinetic solubility was above 46.6 µg/mL. Then `CC1CCCCN1CC(O)COCc1ccc(Cl)cc1` (stereo unspecified), with 29.1 µg/mL (≈ 97.7 µM). The result for `CN(C)C(=O)C#Cc1ccccc1` reads above 26 µg/mL; that for `Cc1ccc(N2C(=S)NC3c4ccccc4OC2(C)C3C(=O)N(C)C)cc1` (stereo unspecified), 50.9 µg/mL (≈ 133 µM); that for `CC1CCCC(C)N1C(=O)COC(=O)CNC(=O)c1ccccc1` (stereo unspecified), above 49.9 µg/mL.

Consider `O=C(Nc1cccc2ncccc12)c1ccco1`, for which the solubility (kinetic) turned out to be 30.5 µg/mL (≈ 128 µM). Turning to `Cc1nc(NC(=O)CSc2nnc(C3CC3)n2N)c(Cl)cc1Cl`, the kinetic solubility is above 56 µg/mL. The result for `O=C(COC(=O)c1cnccn1)NC1CCCc2ccccc21` (stereo unspecified) reads above 46.7 µg/mL; that for `O=C(Nc1ccccc1O)C(c1ccccc1)c1ccccc1`, 9 µg/mL (≈ 29.7 µM).
